In US6855669B2, “Use of α,β unsaturated aliphatic aldehydes and ketones to inhibit potato tuber sprouting” (Washington State University Research Foundation, priority 2000, dated 2005):

What was measured:
Type in all cases: in vivo, Solanum tuberosum
[1] = system: Russet Burbank seed tubers; assay: Example 4: sprout inhibition by aldehyde vapors, 26 days of sprouting; conditions: 12 hours vapor, 26 days at 18° C.
Experimental: Methods: Eleven-month-old Russet Burbank seed tubers were taken from a 4° C. storage area and exposed to trans-2-hexenal (0.6-4.3 mmol/kg), trans-2-heptenal (0.6-3.8 mmol/kg) and trans-2-octenal (0.5-2.5 mmol/kg) vapors separately in 3.9 L glass containers for 12 hours at 23° C. The aldehydes were applied to filter paper inside petri dishes within each jar. Control tubers were enclosed in a glass container without any aldehyde. Sprouts were ‘peeping’ (approximately 3 mm in length) at the time of treatment. Following treatment, tubers were placed at 18° C. (95% relative humidity) in the dark to sprout for 26 days. The experiment was set up in a randomized complete block design (5 replicates) with chemicals and concentrations arranged factorially. Effects of the aliphatic aldehydes on the development of etiolated sprouts were documented at 20 days (photographically) and 26 days of sprouting.

[2] = system: Russet Burbank and Ranger Russet seed-tubers; assay: Example 5: sprout inhibition by C5 to C9 trans-2 aldehydes over prolonged storage (17 weeks); conditions: 0.5, 0.75 and 1.0 mmol/kg tuber, 24 hours, 17 weeks at 8° C.; for inhibition of sprout development (in words): 95% RH
Experimental: (46° F.), 95% relative humidity (RH), for 17 weeks. As described more fully in Example 5, four-month-old tubers (previously stored at 4° C.) were treated (for 24 h) with different concentrations of the aldehydes in mid January. The treated tubers were then stored in the dark for 120 days (17 weeks).
Methods: Four-month-old Russet Burbank and Ranger Russet seed-tubers were taken from a 4° C. storage area and treated (Jan. 10, 2001) separately with 0, 0.5, 0.75 and 1.0 mmol/kg tuber of trans-2-pentenal, trans-2-hexenal, trans-2-heptenal, trans-2-octenal, and trans-2-nonenal in 3.9 L glass jars. The volume of inhibitor required to achieve the above rates was pipetted onto filter paper discs inside the lids of each jar. The concentration of inhibitors in the headspace of the jars was equal at 0.16 mmol/L. The tubers were enclosed in the jars and thus exposed to inhibitor vapor for 24 hours at 23° C. Control tubers were enclosed in a glass jar without any aldehyde. Following treatment, tubers were removed from the jars and placed at 8° C. (46° F.) (95% relative humidity) in the dark to sprout for 120 days (17 weeks). The experiment was set up in a randomized complete block design (5 replicates) with chemicals and concentrations arranged factorially. Effects of the aliphatic aldehydes on the development of etiolated sprouts were documented photographically and quantitatively (sprout number and fresh weight) after 120 days of storage.

[3] = system: Russet Burbank tubers; assay: Example 6: reconditioning, sprout fresh weight and fry color; conditions: 0.45 mmol/kg
Experimental: Seven-month-old tubers from 4° C. (40° F.) storage were treated with 0.45 mmol/kg trans-2-nonenal for 17 hours at 23° C. The tubers were then placed at 14° C. (57° F.) to recondition. French fries were processed from the tubers through four weeks of reconditioning. Fry color (lightness or darkness) was quantified with a photovolt reflectance meter. High photovolt values indicate light-colored fries (high processing quality). Low photovolt values indicate low-quality, dark-colored fries.
Methods: Russet Burbank tubers were stored at 7° C. (44° F.) from harvest Oct. 29, 2000 to Jan. 26, 2001. The tubers were transferred to 4° C. (40° F.) on Jan. 26, 2001, until treatment on Apr. 2, 2001. Tubers were treated with 0.45 mmol/kg trans-2-nonenal in 9.2 L glass desiccators for 17 hours at 23° C. Following treatment, the tubers were placed at 14° C. (57° F.) to recondition for 0, 1, 2, 3 and 4 weeks. […] Fry darkness of the apical and basal ends of the fries was quantified with a photovolt reflectance meter within three minutes of frying. A high reflectance reading (photovolt unit) indicates light fry color due to a relatively low sugar level and thus a high-quality processed product. Conversely, a low reflectance reading indicates dark fry color due to high sugar content, resulting in low processing quality. […] Sprout fresh weight and fry color were recorded.

With CCCCC/C=C/C=O [trans-2-octenal] the “Average Sprout Length” value ([1]; 0.50 mmol/kg) was 0 cm/tuber, the “Sprout Fresh Weight” value ([1]; 0.50 mmol/kg) was 0 g/tuber and the “Average Sprout Length” value ([1]; 0.97 mmol/kg) was 0 cm/tuber. For the same compound, the “Sprout Fresh Weight” value ([1]; 0.97 mmol/kg) was 0 g/tuber, the “Average Sprout Length” value ([1]; 1.44 mmol/kg) was 0 cm/tuber and the “Sprout Fresh Weight” value ([1]; 1.44 mmol/kg) was 0 g/tuber. The “Average Sprout Length” value ([1]; 1.93 mmol/kg) was 0.2 cm/tuber, the “Sprout Fresh Weight” value ([1]; 1.93 mmol/kg) was 0.10 g/tuber and the “Average Sprout Length” value ([1]; 2.48 mmol/kg) was 0.2 cm/tuber. For the same compound, the “Sprout Fresh Weight” value ([1]; 2.48 mmol/kg) was 0.13 g/tuber, the “external pitting damage to the periderm (in words)” value [2] was “did not induce external pitting damage” and the “inhibition of sprout development (in words)” value (from here on “inhibition”) [2] was “totally inhibited sprout development”.
With CCCCCC/C=C/C=O [trans-2-nonenal] the “external pitting damage to the periderm (in words)” value [2] was “did not induce external pitting damage”, the “inhibition” value [2] was “totally inhibited sprout development” and the “sprouts produced (fresh weight)” value ([3]; 17 hours at 23° C., four weeks of reconditioning at 57° F.) was 13.5 g fresh weight/12 tubers. The “processing quality (fry color, photovolt reflectance) (in words)” value ([3]; from 2 to 4 weeks of reconditioning at 57° F.) was “continued to increase”.
With CC/C=C/C=O [trans-2-pentenal] the “inhibition” value [2] was “inhibited sprouting in a concentration-dependent manner”.
With CCCC/C=C/C=O [trans-2-heptenal] the “Average Sprout Length” value ([1]; 0.56 mmol/kg) was 0.2 cm/tuber, the “Sprout Fresh Weight” value ([1]; 0.56 mmol/kg) was 0.01 g/tuber and the “Average Sprout Length” value ([1]; 1.11 mmol/kg) was 0 cm/tuber. For the same compound, the “Sprout Fresh Weight” value ([1]; 1.11 mmol/kg) was 0 g/tuber, the “Average Sprout Length” value ([1]; 1.69 mmol/kg) was 0 cm/tuber and the “Sprout Fresh Weight” value ([1]; 1.69 mmol/kg) was 0 g/tuber. The “Average Sprout Length” value ([1]; 2.16 mmol/kg) was 0 cm/tuber, the “Sprout Fresh Weight” value ([1]; 2.16 mmol/kg) was 0 g/tuber and the “Average Sprout Length” value ([1]; 3.85 mmol/kg) was 0 cm/tuber. The “Sprout Fresh Weight” value ([1]; 3.85 mmol/kg) was 0 g/tuber and the “inhibition” value [2] was “inhibited sprouting in a concentration-dependent manner”.
